The target in one series is Carbonic anhydrase 1 (Homo sapiens, UniProt P00915). Description: Inhibition of human Carbonic anhydrase 1-mediated CO2 hydration by stopped-flow method.
Another series has as its target Carbonic anhydrase 2 (Homo sapiens, UniProt P00918). The series is described as follows: Inhibition of human Carbonic anhydrase 2-mediated CO2 hydration by stopped-flow method.
A further series has as its target Carbonic anhydrase 12 (Homo sapiens, UniProt O43570). Description: Inhibition of human Carbonic anhydrase 12-mediated CO2 hydration by stopped-flow method.
A further series has as its target Carbonic anhydrase 9 (Homo sapiens, UniProt Q16790). Description: Inhibition of human Carbonic anhydrase 9-mediated CO2 hydration by stopped-flow method.
Series [1] deals with B16-F10. The series is described as follows: Antimetastatic activity against mouse B16F10 cells xenografted in C57BL mouse assessed as decrease in lung metastasis at 12.5 mg/kg, ip administered QD measured after 21 days. Format: functional. More on the design: scale not given: the % may be the effect or the level left. Conditions: route intraperitoneal.
Series [2] relates to B16-F10. Description: Antimetastatic activity against mouse B16F10 cells xenografted in C57BL mouse assessed as decrease in lung metastasis at 50 mg/kg, po administered QD measured after 21 days. Format: functional. More on the design: scale not given: the % may be the effect or the level left.
Series [3] relates to HeLa. The series is described as follows: Cytotoxicity against human HeLa cells assessed as increase in LDH level up to 100 uM after 24 hrs in normoxic condition by spectrophotometric analysis relative to control. The series is classed as cell-based.
The subject of series [4] is HT-1080. Description: Cytotoxicity against human HT1080 cells assessed as increase in LDH level after 24 hrs in hypoxic condition by spectrophotometric analysis relative to control. Format: functional, cell-based.
The test system of series [5] is HT-1080. Description: Cytotoxicity against human HT1080 cells assessed as increase in LDH level at 1 uM after 24 hrs in hypoxic condition by spectrophotometric analysis relative to control. The series is classed as functional.
For a further series, the system named is Hydroxyapatite. The series is described as follows: Binding affinity to bone mineral hydroxyapatite at 100 uM after 17 hrs.
The subject of series [6] is B16-F10. Description: Antimetastatic activity against mouse B16F10 cells xenografted in C57BL mouse assessed as decrease in lung metastasis at 25 mg/kg, ip administered QD measured after 21 days. Format: functional. Set-up: scale not given: the % may be the effect or the level left. Conditions: route intraperitoneal.
Series [7] concerns HeLa. The series is described as follows: Cytotoxicity against human HeLa cells assessed as increase in LDH level at 50 uM after 24 hrs in hypoxic condition by spectrophotometric analysis relative to control. Format: functional.
Series [8] deals with T1, 72 kDa type IV collagenase (Homo sapiens, UniProt P08253). The series is described as follows: Inhibition of human recombinant MMP2 measured every 5 mins for 3 hrs.
Series [9] deals with HT-1080. Description: Cytotoxicity against human HT1080 cells assessed as increase in LDH level at 50 uM after 24 hrs in hypoxic condition by spectrophotometric analysis relative to control. The series is classed as functional.
The nature of series [10]: Half life in Sprague-Dawley rat at 33 mg/kg, iv. The settings on record: in vivo. More on the design: dose 33 mg/kg, route intravenous. The series is classed as ADME, organism-based.
Series [11] concerns HT-1080. Description: Cytotoxicity against human HT1080 cells assessed as increase in LDH level at 10 uM after 24 hrs in hypoxic condition by spectrophotometric analysis relative to control. The series is classed as functional.
The test system of series [12] is B16-F10. Description: Antimetastatic activity against mouse B16F10 cells xenografted in C57BL mouse assessed as decrease in lung metastasis at 50 mg/kg, ip administered QD measured after 21 days. The series is classed as functional. Set-up: scale not given: the % may be the effect or the level left. Conditions: route intraperitoneal.
Series [13] concerns HeLa. Description: Cytotoxicity against human HeLa cells assessed as increase in LDH level after 24 hrs in hypoxic condition by spectrophotometric analysis relative to control. The series is classed as functional, cell-based.
Series [14] relates to HT-1080. Description: Cytotoxicity against human HT1080 cells assessed as increase in LDH level up to 100 uM after 24 hrs in normoxic condition by spectrophotometric analysis relative to control. The settings on record: ht-1080, 24 h. The series is classed as cell-based.
A short description of series [15]: Volume of distribution at steady state in Sprague-Dawley rat at 33 mg/kg, iv. More on the design: dose 33 mg/kg, route intravenous. The settings on record: in vivo, read-out: Vdss. Format: ADME, organism-based.
The target of series [16] is T1, 72 kDa type IV collagenase. Description: Inhibition of MMP2.

T1 sequence (P08253 whole entry): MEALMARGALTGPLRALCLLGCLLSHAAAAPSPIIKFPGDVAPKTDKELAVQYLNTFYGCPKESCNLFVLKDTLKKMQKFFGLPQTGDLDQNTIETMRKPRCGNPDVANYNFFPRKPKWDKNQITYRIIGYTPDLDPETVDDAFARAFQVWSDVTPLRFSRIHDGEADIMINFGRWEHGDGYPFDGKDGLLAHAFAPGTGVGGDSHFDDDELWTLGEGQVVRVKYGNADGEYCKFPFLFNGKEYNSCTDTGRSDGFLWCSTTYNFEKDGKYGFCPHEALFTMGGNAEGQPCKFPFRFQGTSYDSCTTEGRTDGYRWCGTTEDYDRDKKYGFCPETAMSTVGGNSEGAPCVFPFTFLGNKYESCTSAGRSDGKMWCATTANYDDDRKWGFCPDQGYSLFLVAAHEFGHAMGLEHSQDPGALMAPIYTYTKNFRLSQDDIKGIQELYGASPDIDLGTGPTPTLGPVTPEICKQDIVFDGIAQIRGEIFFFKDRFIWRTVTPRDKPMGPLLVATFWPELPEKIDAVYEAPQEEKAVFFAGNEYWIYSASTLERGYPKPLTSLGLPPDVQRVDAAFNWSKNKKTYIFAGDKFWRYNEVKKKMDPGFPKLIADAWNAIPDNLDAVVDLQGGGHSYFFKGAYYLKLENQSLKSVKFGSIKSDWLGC
Carbonic anhydrase 12, sequence (O43570 whole entry): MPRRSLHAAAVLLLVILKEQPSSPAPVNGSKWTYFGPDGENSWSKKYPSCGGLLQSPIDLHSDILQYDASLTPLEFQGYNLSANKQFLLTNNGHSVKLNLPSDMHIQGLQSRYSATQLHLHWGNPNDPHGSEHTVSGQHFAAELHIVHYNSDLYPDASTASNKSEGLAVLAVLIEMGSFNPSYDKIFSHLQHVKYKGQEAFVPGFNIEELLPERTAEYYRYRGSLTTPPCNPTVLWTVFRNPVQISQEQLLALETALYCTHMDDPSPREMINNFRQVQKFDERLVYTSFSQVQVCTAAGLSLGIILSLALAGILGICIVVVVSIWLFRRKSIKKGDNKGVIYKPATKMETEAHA
Carbonic anhydrase 1, sequence (P00915 whole entry): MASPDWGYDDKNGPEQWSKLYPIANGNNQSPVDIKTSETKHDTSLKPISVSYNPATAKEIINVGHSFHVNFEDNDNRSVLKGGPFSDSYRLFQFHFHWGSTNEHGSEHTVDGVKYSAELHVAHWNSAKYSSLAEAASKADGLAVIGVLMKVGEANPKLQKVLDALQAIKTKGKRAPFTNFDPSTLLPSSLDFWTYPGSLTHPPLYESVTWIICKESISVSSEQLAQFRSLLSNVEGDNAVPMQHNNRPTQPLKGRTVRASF

Take `O=C(NCCN1CCCC1)P(=O)(O)O`: the IC50 against Carbonic anhydrase 1 turned out to be 9.43 µM; against Carbonic anhydrase 2, 9.66 µM; against Carbonic anhydrase 12, 5.43 µM; at Carbonic anhydrase 9, 8.8 µM.

In the case of `CCC(CC)NC(=O)P(=O)(O)O`, the half-inhibitory concentration (IC50) came to 6.71 µM on Carbonic anhydrase 1, 8.79 µM against Carbonic anhydrase 2, 4.65 µM on Carbonic anhydrase 12 and 8.26 µM against Carbonic anhydrase 9.

For `O=C(NCCCNS(=O)(=O)c1ccc(Oc2ccccc2)cc1)P(=O)(O)O`, the IC50 was found to be 0.71 µM at Carbonic anhydrase 1, 0.58 µM on Carbonic anhydrase 2, 6.4 µM on Carbonic anhydrase 12 and 6.8 µM against Carbonic anhydrase 9.

On to `O=C(NCCCCCNS(=O)(=O)c1ccc(Oc2ccccc2)cc1)P(=O)(O)O`, for which the Activity in the series with B16-F10 [1] is 57%; in the series with B16-F10 [2] it was 80%; in the series on HeLa [3], “Non-toxic”; in the series on HT-1080 [4] it was “Dose-dependent effect”; with B16-F10 [6] it was 76%; in the series with B16-F10 [12], 90%. The Activity entry in the series on HeLa [13] was “Dose-dependent effect”; with HT-1080 [14], “Non-toxic”. For the same compound, the concentration for half-maximal inhibition (IC50) against Carbonic anhydrase 1 is 0.52 µM; in series [8], 4 µM; against Carbonic anhydrase 2, 0.31 µM; against Carbonic anhydrase 12, 5.7 µM; at Carbonic anhydrase 9 it was 6.3 µM. The “fold change (FC)” value with HT-1080 [5] worked out at 1; in the series with HeLa [7], 1.3; with HT-1080 [9], 2.3; with HT-1080 [11] it was 1.5. Besides, the Drug absorption with Hydroxyapatite was found to be 44%. In series [10], the half-life is 540 min. Besides, in series [15], the Vd worked out at 1.65 L/kg.

For `N[C@@H]1CCCC[C@@H]1NC(=O)P(=O)(O)O`, the half-maximal inhibitory concentration (IC50) at Carbonic anhydrase 1 amounted to 1.6 µM; against Carbonic anhydrase 2 it was 1.32 µM; at Carbonic anhydrase 12, 6 µM; at Carbonic anhydrase 9, 8.6 µM.

As to `O=C(NCCNC(=O)P(=O)(O)O)c1ccc(Oc2ccccc2)cc1`, the IC50 against Carbonic anhydrase 1 was 0.62 µM; against Carbonic anhydrase 2, 0.61 µM; at Carbonic anhydrase 12 it was 8.6 µM; in [16], 20 µM; at Carbonic anhydrase 9, 9.9 µM.

For `O=C(NC1CCCCCCC1)P(=O)(O)O` [(CYCLOOCTYLAMINO)CARBONYLPHOSPHONIC ACID], the concentration for half-maximal inhibition (IC50) against Carbonic anhydrase 1 was 8.02 µM; at Carbonic anhydrase 2 it was 7.89 µM; at Carbonic anhydrase 12, 7.99 µM; against Carbonic anhydrase 9, 9.14 µM.

For the compound `O=C(NCCN1CCCCC1)P(=O)(O)O`, the IC50 against Carbonic anhydrase 1 came to 7.82 µM; against Carbonic anhydrase 2 it was 8.6 µM; against Carbonic anhydrase 12, 7.64 µM; at Carbonic anhydrase 9, 9 µM.

Take `CC(C)NC(=O)P(=O)(O)O` [(ISOPROPYLAMINO)CARBONYLPHOSPHONIC ACID]: the IC50 at Carbonic anhydrase 1 was 8.81 µM; against Carbonic anhydrase 2, 13.9 µM; at Carbonic anhydrase 12, 7.27 µM; against Carbonic anhydrase 9 it was 8.3 µM.

For the compound `C[C@H](NC(=O)P(=O)(O)O)C1CCCCC1`, the concentration for half-maximal inhibition (IC50) amounted to 5.31 µM against Carbonic anhydrase 1, 9.45 µM at Carbonic anhydrase 2, 6.64 µM against Carbonic anhydrase 12 and 6.36 µM against Carbonic anhydrase 9.

In the case of `O=C(NCCCCNC(=O)P(=O)(O)O)P(=O)(O)O`, the IC50 against Carbonic anhydrase 1 came to 9.74 µM; against Carbonic anhydrase 2, 8.82 µM; against Carbonic anhydrase 12, 6.02 µM; at Carbonic anhydrase 9, 9.1 µM.

Consider `C[C@@H](NC(=O)P(=O)(O)O)C1CCCCC1`, for which the concentration for half-maximal inhibition (IC50) against Carbonic anhydrase 1 was 6.78 µM; on Carbonic anhydrase 2 it was 8.85 µM; on Carbonic anhydrase 12, 6.97 µM; at Carbonic anhydrase 9, 8.12 µM.

For `O=C(NCCNS(=O)(=O)c1ccc(Oc2ccccc2)cc1)P(=O)(O)O`, the 50% inhibitory concentration (IC50) against Carbonic anhydrase 1 stood at 0.98 µM; at Carbonic anhydrase 2 it was 0.82 µM; against Carbonic anhydrase 12, 6.9 µM; on Carbonic anhydrase 9 it was 7 µM.

For `O=C(NCC1CCCCC1)P(=O)(O)O` [CYCLOHEXYLMETHYLCARBAMOYLPHOSPHONIC ACID], the IC50 worked out at 7.36 µM against Carbonic anhydrase 1, 9.23 µM at Carbonic anhydrase 2, 7.44 µM on Carbonic anhydrase 12 and 8.59 µM against Carbonic anhydrase 9.

In the case of `O=C(NCCc1ccccc1)P(=O)(O)O` [PHENETHYLCARBAMOYLPHOSPHONIC ACID], the half-inhibitory concentration (IC50) came out at 7.68 µM at Carbonic anhydrase 1, 8 µM against Carbonic anhydrase 2, 5.44 µM against Carbonic anhydrase 12 and 6.08 µM at Carbonic anhydrase 9.

Turning to `N[C@H]1CCCC[C@@H]1NC(=O)P(=O)(O)O`, the IC50 against Carbonic anhydrase 1 was 8.24 µM; against Carbonic anhydrase 2, 8.28 µM; against Carbonic anhydrase 12, 8.26 µM; at Carbonic anhydrase 9, 7.14 µM.

On to `O=C(NCCCCCCNS(=O)(=O)c1ccc(Oc2ccccc2)cc1)P(=O)(O)O`, for which the Activity with B16-F10 [1] is 82%; in the series with B16-F10 [2] it was 50%; in the series on HeLa [3], “Non-toxic”; in the series with HT-1080 [4], “Dose-dependent effect”; in the series on B16-F10 [6] it was 90%; in the series with HeLa [13] it was “Dose-dependent effect”. The Activity entry in the series on HT-1080 [14] was “Non-toxic”. Besides, the IC50 at Carbonic anhydrase 1 turned out to be 0.38 µM; in series [8] it was 4 µM; at Carbonic anhydrase 2, 0.1 µM; on Carbonic anhydrase 12, 6.2 µM; at Carbonic anhydrase 9 it was 7 µM. Also, the figures for the “fold change (FC)” value in the series with HT-1080 [5], in the series with HT-1080 [9] and in the series on HT-1080 [11] were 1, 1.9 and 1.3, respectively.

In the case of `O=C(NC1CCCC1)P(=O)(O)O` [(CYCLOPENTYLAMINO)CARBONYLPHOSPHONIC ACID], the IC50 is 8.79 µM against Carbonic anhydrase 1, 7.41 µM at Carbonic anhydrase 2, 7.26 µM on Carbonic anhydrase 12 and 8.97 µM against Carbonic anhydrase 9. For the same compound, the Activity in the series with B16-F10 [2] is 80%; in the series on B16-F10 [12], 86%.

On to `CCOP(=O)(OCC)C(=O)NCCCCNC(=O)P(=O)(OCC)OCC`, for which the IC50 against Carbonic anhydrase 1 was 9.7 µM; on Carbonic anhydrase 2, 9.59 µM; at Carbonic anhydrase 12, 2.72 µM; at Carbonic anhydrase 9, 9.65 µM.

With `O=C(NCCCCNS(=O)(=O)c1ccc(Oc2ccccc2)cc1)P(=O)(O)O`, the concentration for half-maximal inhibition (IC50) against Carbonic anhydrase 1 came to 0.75 µM; at Carbonic anhydrase 2, 0.1 µM; on Carbonic anhydrase 12, 5.6 µM; against Carbonic anhydrase 9 it was 6.1 µM.

In the case of `O=C(NC1CCCCC1)P(=O)(O)O` [(CYCLOHEXYLAMINO)CARBONYLPHOSPHONIC ACID], the IC50 was 7.89 µM at Carbonic anhydrase 1, 8.81 µM on Carbonic anhydrase 2, 5.59 µM at Carbonic anhydrase 12 and 8.89 µM against Carbonic anhydrase 9.

These data come from ChEMBL document CHEMBL2169810, “Carbamoylphosphonates control tumor cell proliferation and dissemination by simultaneously inhibiting carbonic anhydrase IX and matrix metalloproteinase-2. Toward nontoxic chemotherapy targeting tumor microenvironment” (J Med Chem, 2012).
